{"source": "patent US10064839B2", "about": "“Methods of treating liver diseases” (Zafgen, Inc., priority 2012, dated 2018)", "key": {"[1]": {"target": "T1, recombinant human MetAP2 (Homo sapiens, UniProt P50579)", "T1 construct": "made in house; host or cells: Sf9 insect cells", "T1 sequence (P50579 whole entry)": "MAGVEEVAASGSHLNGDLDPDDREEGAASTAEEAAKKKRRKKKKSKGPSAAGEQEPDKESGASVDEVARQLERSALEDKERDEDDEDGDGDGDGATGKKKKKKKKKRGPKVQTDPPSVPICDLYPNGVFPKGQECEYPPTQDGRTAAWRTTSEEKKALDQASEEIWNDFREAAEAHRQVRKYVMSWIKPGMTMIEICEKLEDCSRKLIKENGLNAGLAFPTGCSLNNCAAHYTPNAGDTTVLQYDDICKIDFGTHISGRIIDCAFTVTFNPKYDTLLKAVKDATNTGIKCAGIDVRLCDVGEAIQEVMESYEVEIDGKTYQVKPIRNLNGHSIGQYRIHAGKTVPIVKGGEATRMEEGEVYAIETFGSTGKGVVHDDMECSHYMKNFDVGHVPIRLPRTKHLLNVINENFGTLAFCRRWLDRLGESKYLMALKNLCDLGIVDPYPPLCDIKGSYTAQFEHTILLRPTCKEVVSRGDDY", "assay": "Recombinant human MetAP2 inhibition assay (MAS substrate, Amplex red fluorescence)", "format": "biochemical", "conditions": "first value of the cell; read-out: MetAP2/MetAP1 IC50 (nM): MetAP2", "procedure": "Compounds are tested for their capacity to inhibit recombinant human MetAP2 activity using the following assay.\nHuman recombinant MetAP2 expressed in Sf9 cells followed by affinity purification and EDTA treatment to remove endogenous active site cation was dialysed against MnCl2 to produce the manganese enzyme used in the assay. The assay was carried out for 30 minutes at 25° C. in 50 mM HEPES buffer containing 100 mM NaCl, pH 7.5 the presence of 0.75 mM Methionine-Alanine-Serine (MAS) substrate and 50 µg/ml amino acid oxidase using a dilution of purified MetAP2 giving >3-fold signal: noise. Cleavage of the substrate by MetAP2 and oxidation of free methionine by amino acid oxidase was detected and quantified using fluorescence generated by Amplex red (10-acetyl-3,7-dihydroxyphenoxazine) in combination with horseradish peroxidase which detects H2O2 released during the oxidation step. The fluorescent signal was detected using a multiwell fluorimeter. Compounds were diluted in DMSO prior to addition to assay buffer, the final DMSO concentration in the assay being 1%.\nIC50 values are calculated using the XLfit software package (version 2.0.5)."}, "[2]": {"assay": "Plasma protein binding, rat", "format": "in vitro ADME", "conditions": "read-out: Plasma protein binding (h/r/m, %): r (converted)"}, "[3]": {"target": "hERG (Homo sapiens, UniProt Q12809)", "sequence (Q12809 whole entry)": "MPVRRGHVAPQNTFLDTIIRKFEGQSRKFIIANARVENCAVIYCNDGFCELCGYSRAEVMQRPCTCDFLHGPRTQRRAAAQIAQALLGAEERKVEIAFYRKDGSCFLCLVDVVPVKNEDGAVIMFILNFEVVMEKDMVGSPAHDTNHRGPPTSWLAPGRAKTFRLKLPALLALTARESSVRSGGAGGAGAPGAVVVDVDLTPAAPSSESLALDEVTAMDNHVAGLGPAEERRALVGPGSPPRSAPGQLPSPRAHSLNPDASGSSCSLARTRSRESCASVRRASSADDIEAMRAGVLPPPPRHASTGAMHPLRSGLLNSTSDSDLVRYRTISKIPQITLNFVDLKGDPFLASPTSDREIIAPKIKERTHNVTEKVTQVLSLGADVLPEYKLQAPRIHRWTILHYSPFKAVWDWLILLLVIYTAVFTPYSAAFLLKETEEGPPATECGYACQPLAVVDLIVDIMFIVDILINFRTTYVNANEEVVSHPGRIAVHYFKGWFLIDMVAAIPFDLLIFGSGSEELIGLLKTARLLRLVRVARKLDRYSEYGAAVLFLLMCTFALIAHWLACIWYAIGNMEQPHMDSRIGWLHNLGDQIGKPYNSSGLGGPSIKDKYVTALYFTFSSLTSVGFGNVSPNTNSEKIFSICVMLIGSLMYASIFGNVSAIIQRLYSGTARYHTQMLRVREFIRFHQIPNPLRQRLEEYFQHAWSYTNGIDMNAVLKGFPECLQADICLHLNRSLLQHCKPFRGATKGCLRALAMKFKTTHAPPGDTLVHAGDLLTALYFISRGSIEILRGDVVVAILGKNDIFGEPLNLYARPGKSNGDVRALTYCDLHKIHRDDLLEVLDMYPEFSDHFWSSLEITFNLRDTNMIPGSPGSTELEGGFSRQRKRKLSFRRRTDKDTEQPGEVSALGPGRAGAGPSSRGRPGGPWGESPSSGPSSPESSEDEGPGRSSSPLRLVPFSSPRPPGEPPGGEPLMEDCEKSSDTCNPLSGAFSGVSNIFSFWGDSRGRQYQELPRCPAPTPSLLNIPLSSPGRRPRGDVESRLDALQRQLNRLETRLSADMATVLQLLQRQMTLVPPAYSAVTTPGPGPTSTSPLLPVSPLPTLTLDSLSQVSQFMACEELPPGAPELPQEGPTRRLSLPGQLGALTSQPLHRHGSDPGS", "assay": "hERG IC50"}, "[4]": {"assay": "AMES"}, "[5]": {"system": "72 receptors and enzymes", "assay": "CEREP screen", "conditions": "at 10 μM across 72 receptors and enzymes"}, "[6]": {"assay": "i.v. and p.o. exposure study, rat", "format": "in vivo", "procedure": "Mouse, rat and dog studies were conducted to assess i.v. and p.o. (oral) exposure."}, "[7]": {"system": "NASH mice", "assay": "Non-alcoholic steatohepatitis (STZ + high fat diet) mouse model", "format": "in vivo", "conditions": "for Mean body weight at the day before sacrifice: 5 to 9 weeks of age, Vehicle 18.8±1.0 g; for Fibrosis area (Sirius red-positive area): Vehicle 1.07±0.18%; for Inflammation area (F4/80-positive area): Vehicle 3.57±0.88%; for Fat deposition area (oil red-positive area): Vehicle 23.57±6.52%; for Liver TG content: Vehicle 67.3±29.0; for Whole blood HbA1c levels: FIG. 9; for NAFLD Activity score (NAS): Vehicle 5.4±0.9", "procedure": "NASH was induced in 48 male mice by a single subcutaneous injection of 200 μg streptozotocin (STZ; Sigma-Aldrich) in the back of mice 2 days after birth, and by feeding with high fat diet (HFD; 57 kcal % fat) after 4 weeks of age. At 5 weeks of age, the NASH mice were randomized into 6 groups of 8 mice based on body weight. Eight male littermates, fed with normal diet (without STZ treatment, were used for the Normal group. Vehicle, Compound A and Telmisartan were administered by the oral route in a volume of 10 mL/kg body weight.\nCompound A was administered twice daily at doses of 1, 3 or 10 mg/kg body weight (i.e., 2, 6 or 20 mg/kg/day) and once daily at dose of 30 mg/kg body weight. Telmisartan was administered once daily at a dose of 10 mg/kg body weight.\nC57BL/6 mice (15-day pregnant female) were obtained from Charles River Laboratories Japan (Japan). The animals were maintained in a SPF facility under controlled conditions of temperature (23±2° C.), humidity (45±10%), lighting (12-hour artificial light and dark cycles; light from 8:00 to 20:00) and air exchange. A high pressure (20±4 Pa) was maintained in the experimental room to prevent contamination of the facility.\nMice were fasted for 4 hours before blood was collected at the time of sacrifice. HbA1c levels were quantified in whole blood samples by DCA Vantage Analyzer (Siemens Healthcare Diagnostics, USA). For plasma biochemistry, blood was collected in polypropylene tubes with anticoagulant (Novo-Heparin;) and centrifuged at 1,000×g for 15 minutes at 4° C. The supernatant was collected and stored at −80° C. until use. Plasma levels of glucose, ALT, TG and total cholesterol were measured by FUJI DRI-CHEM 7000 (Fujifilm, Japan). Plasma insulin concentration was quantified by the Ultra Sensitive Mouse Insulin ELISA Kit.\nLiver total lipid-extracts were obtained by Folch's method (Folch J. et al., J. Biol. Chem. 1957; 226: 497). Liver samples were homogenized in chloroform-methanol (2:1, v/v) and incubated overnight at room temperature. After washing with chloroform-methanol-water (8:4:3, v/v/v), the extracts were evaporated to dryness, and dissolved in isopropanol. Liver TG levels were measured by Triglyceride E-test (Wako Pure Chemical Industries). Extracts were diluted 2-fold in isopropanol when the TG content exceeded the detection limit.\nFor HE staining, sections were cut from paraffin blocks of liver tissue prefixed in Bouin's solution and stained with Lillie-Mayer's Hematoxylin (Muto Pure Chemicals, Japan) and eosin solution (Wako Pure Chemical Industries). NAFLD Activity score (NAS) was calculated according to the criteria of Kleiner (Kleiner D E et al., Hepatology, 2005; 41:1313). To visualize collagen deposition, Bouin's fixed liver sections were stained using picro-Sirius red solution (Waldeck, Germany). To visualize macro- and microvesicular fat, cryosections were cut from frozen liver tissues, prefixed in 10% neutral buffered formalin, embedded in Tissue-Tek O.C.T. compound (Sakura Finetek Japan, Japan), and stained with Oil Red O (Sigma-Aldrich). For immunohistochemistry, sections were cut from frozen liver tissues embedded in Tissue-Tek O.C.T. compound and fixed in acetone. Endogenous peroxidase activity was blocked using 0.03% H2O2 for 5 minutes, followed by incubation with Block Ace (Dainippon Sumitomo Pharma, Japan) for 10 minutes. The sections were incubated with a 200-fold dilution of anti-F4/80 antibody (BMA Biomedicals, Switzerland) over night at 4° C. After incubation with secondary antibody (HRP-Goat anti-rat antibody, Invitrogen, USA), enzyme-substrate reactions were performed using 3, 3′-diaminobenzidine/H2O2 solution (Nichirei, Japan). […]"}}, "note": "pIC50: −log10 of the molar value.", "data": [{"compound": "CCN(CC)C/C=C\\c1cc(F)ccc1S(=O)(=O)Nc1ccc2c(c1C(=O)O)OC[C@@H]1C[C@H]21", "note": "(single isomer, unassigned) [Example 12]", "values": [{"measurement": "IC50", "setting": "[1]", "value": 25, "unit": "nM"}, {"measurement": "fraction unbound", "setting": "[2]", "value": 0.189}, {"measurement": "pIC50", "setting": "[3]", "value": "< 4.48"}, {"measurement": "AMES", "setting": "[4]", "value": "negative"}, {"measurement": "CEREP screen, inhibition", "setting": "[5]", "value": "<35", "unit": "% inhibition at 10 μM"}, {"measurement": "Kp", "setting": "[6]; liver/plasma, po, read-out: liver/plasma ratio", "value": 39}, {"measurement": "clearance", "setting": "[6]; plasma, iv", "value": 54, "unit": "mL/min/kg"}, {"measurement": "half-life", "setting": "[6]; plasma, iv, read-out: Plasma T1/2 (converted)", "value": 1.2, "unit": "h"}, {"measurement": "Vd", "setting": "[6]; plasma, iv, read-out: Vss", "value": 3.4, "unit": "L/kg"}, {"measurement": "AUC", "setting": "[6]; plasma, po", "value": 356, "unit": "ng·h/mL"}, {"measurement": "bioavailability", "setting": "[6]; plasma, po", "value": 22, "unit": "%"}, {"measurement": "HE-stained liver sections vs Vehicle group", "setting": "[7]; 1 mg/kg (BID)", "value": "No obvious differences"}, {"measurement": "Mean body weight at the day before sacrifice", "setting": "[7]; 1 mg/kg (BID) oral", "value": "19.2 ± 1.4", "unit": "g"}, {"measurement": "Fibrosis area (Sirius red-positive area)", "setting": "[7]; 1 mg/kg (BID)", "value": "1.12±0.46", "unit": "%"}, {"measurement": "Inflammation area (F4/80-positive area)", "setting": "[7]; 1 mg/kg (BID)", "value": "3.67±0.91", "unit": "%"}, {"measurement": "Fat deposition area (oil red-positive area)", "setting": "[7]; 1 mg/kg (BID)", "value": "18.47±5.22", "unit": "%"}, {"measurement": "Liver TG content", "setting": "[7]; 1 mg/kg (BID)", "value": "71.7±30.3", "unit": "mg/g liver"}, {"measurement": "Hepatocellular ballooning and inflammatory cell infiltration vs Vehicle group", "setting": "[7]; 3 mg/kg (BID)", "value": "decrease"}, {"measurement": "Mean body weight at the day before sacrifice", "setting": "[7]; 3 mg/kg (BID) oral", "value": "18.7 ± 1.4", "unit": "g"}, {"measurement": "Whole blood HbA1c levels", "setting": "[7]; 3 mg/kg (BID)", "value": "decreased"}, {"measurement": "Fibrosis area (Sirius red-positive area)", "setting": "[7]; 3 mg/kg (BID)", "value": "0.89±0.32", "unit": "%"}, {"measurement": "Inflammation area (F4/80-positive area)", "setting": "[7]; 3 mg/kg (BID)", "value": "3.47±0.65", "unit": "%"}, {"measurement": "NAFLD Activity score (NAS)", "setting": "[7]; 3 mg/kg (BID)", "value": "3.6±1.6"}, {"measurement": "Fat deposition area (oil red-positive area)", "setting": "[7]; 3 mg/kg (BID)", "value": "19.53±4.64", "unit": "%"}, {"measurement": "Liver TG content", "setting": "[7]; 3 mg/kg (BID)", "value": "52.9±18.5", "unit": "mg/g liver"}, {"measurement": "Hepatocellular ballooning and inflammatory cell infiltration vs Vehicle group", "setting": "[7]; 10 mg/kg (BID)", "value": "decrease"}, {"measurement": "Mean body weight at the day before sacrifice", "setting": "[7]; 10 mg/kg (BID) oral", "value": "18.7 ± 1.0", "unit": "g"}, {"measurement": "Whole blood HbA1c levels", "setting": "[7]; 10 mg/kg (BID)", "value": "decreased"}, {"measurement": "Fibrosis area (Sirius red-positive area)", "setting": "[7]; 10 mg/kg (BID)", "value": "1.07±0.31", "unit": "%"}, {"measurement": "Inflammation area (F4/80-positive area)", "setting": "[7]; 10 mg/kg (BID)", "value": "3.82±0.57", "unit": "%"}, {"measurement": "NAFLD Activity score (NAS)", "setting": "[7]; 10 mg/kg (BID)", "value": "3.4±1.5"}, {"measurement": "Fat deposition area (oil red-positive area)", "setting": "[7]; 10 mg/kg (BID)", "value": "23.31±9.18", "unit": "%"}, {"measurement": "Liver TG content", "setting": "[7]; 10 mg/kg (BID)", "value": "56.7±25.8", "unit": "mg/g liver"}, {"measurement": "HE-stained liver sections vs Vehicle group", "setting": "[7]; 30 mg/kg (QD)", "value": "No obvious differences"}, {"measurement": "Mean body weight at the day before sacrifice", "setting": "[7]; 30 mg/kg (QD) oral", "value": "17.9 ± 0.9", "unit": "g"}, {"measurement": "Fibrosis area (Sirius red-positive area)", "setting": "[7]; 30 mg/kg (QD)", "value": "0.99±0.43", "unit": "%"}, {"measurement": "Inflammation area (F4/80-positive area)", "setting": "[7]; 30 mg/kg (QD)", "value": "3.90±0.78", "unit": "%"}, {"measurement": "Fat deposition area (oil red-positive area)", "setting": "[7]; 30 mg/kg (QD)", "value": "22.30±9.59", "unit": "%"}, {"measurement": "Liver TG content", "setting": "[7]; 30 mg/kg (QD)", "value": "62.4±18.1", "unit": "mg/g liver"}, {"measurement": "Plasma total cholesterol levels", "setting": "[7]; BID dosing, dose dependent, FIG. 10", "value": "decreased"}, {"measurement": "NAS", "setting": "[7]; QD dosing (30 mg/kg)", "value": "did not show evident improvement"}, {"measurement": "Plasma total cholesterol levels", "setting": "[7]; QD dosing (30 mg/kg)", "value": "significantly decreased"}, {"measurement": "Whole blood HbA1c", "setting": "[7]; QD dosing (30 mg/kg)", "value": "did not show evident improvement"}]}]}
